Data on two molecules can be found in patent US20180265867A1, “NUCLEIC ACID MOLECULES WITH ENHANCED ACTIVITY” (priority 2015, published 2018).

d = 2'-deoxy (DNA); r = 2'-OH (RNA)

Data set [1] has as its system A2780 human ovarian cancer cells. Description: Cell viability (ApoTox-Glo Triplex Assay) in A2780 cells. The data set is classed as cell-based. As to conditions: 10 nM to 1000 nM, 48 h (FIG. 15).
Description: Cell viability study of 5-FU and siRNA derivatives bearing 5FU molecules were performed using, ApoTox-Glo™ Triplex Assay kit following manufacturer's protocol. Briefly, A2780 human ovarian cancer cells were seeded in 384 well BD Facon black plates (1000 cells in 50 μL/well) using automated Biomek FX pipetting workstation and incubated at 37° C. for 24 h for cell attachment. Stock solution of 5FU, siRNA-5FU2 and siRNA 5FU5 was prepared in cell culture medium (DMEM) respectively. siRNA-5FU2 and siRNA 5FU5 corresponds to Stat3 siRNA bearing 2 or 5 molecules of 5FU at the 3′end of the sense strand. After 24 h, different volume of stock solution was added to each well using non-contact acoustic dispenser (Echo 555), to obtain a gradient concentration ranging from 10 nM to 1000 nM and incubated for additional 48 h at 37° C. After 48 h, 20 μl of medium was treated with 5 μl of cell viability assay reagent, containing both GF-AFC substrate and bis-AAF-R110 substrate and incubated for 30 min at 37° C. Fluorescence values were recorded at two wavelength sets: 400Ex/505Em (Viability) and 485Ex/520Em (Cytotoxicity) using Envision Multilabel Plate Reader and the cell viability were obtained as a percentage of the untreated control (100% cell viability). […] All the cell experiments were measured in triplicate.
In the next data set the test system is SOX9. Description: SOX9 expression in MC3T3-E1 cells by real-time PCR. Type of data set: cell-based, mouse. The note with it: MC3T3-E1 cells (FIG. 13). Here is the method: (§1) MC3T3-E1 cells were cultured in α-MEM (Sigma-Aldrich, Haverhill, UK) medium containing 10% FBS, 1% L-Glutamine, and 1% antibiotics (PeSt) at 37° C. with 5% CO2. One day prior to the miRNA treatment, 35,000 cells were plated per each well of a 24-well plate. On the experiment day, cells were replaced with 2% heat inactivated-FBS containing α-MEM medium with 1% L-Glutamine, and 1% antibiotics (PeSt). miR-34a-CP (final concentration: 50 nM) was given to the each well. Mirvana scrambled miRNA mimic was used as a negative control.
After 24 hours of transfection, and incubation, RNA extraction was performed by using miRCURY RNA Isolation Kit—Cell and Plant (#300100) and protocol from Exiqon, Vedbæk, Denmark. […] Thereafter, RNA concentrations were measured using NanoDrop ND-1000 from NanoDrop Technologies, Wilmington, Del.
The cDNA was made from the total RNA using High Capacity cDNA reverse transcription kit (Applied Biosystems, USA). […] The qRT-PCR reaction comprised a non-template control of cDNA in order to rule out any non-specific reading. […]
Since overexpression of Ctnnb1 is indicative of osteogenic differentiation of cells, we determined the expression of transcription factor that could be activated. For this purpose, we measured the levels of […] marker SOX9 that is implicated in endochondral ossification.

The next data set concerns Ctnnb1 (β-Catenin). Description: Ctnnb1 expression in MC3T3-E1 cells by quantitative RT-PCR. Type of data set: cell-based, mouse. The procedure:
as §1
After 24 hours of transfection, and incubation, RNA extraction was performed by using miRCURY RNA Isolation Kit—Cell and Plant (#300100) and protocol from Exiqon, Vedbæk, Denmark. RNA samples were treated with DNase for 30 minutes at 37 degrees, thereafter inactivated with a DNase inactivation solution (TUTRBO DNase AM2238 thermofisher). Thereafter, RNA concentrations were measured using NanoDrop ND-1000 from NanoDrop Technologies, Wilmington, Del.
The cDNA was made from the total RNA using High Capacity cDNA reverse transcription kit (Applied Biosystems, USA). Reactions were performed on a 96-well Bio-Rad Thermal Cycler PCR System at 37° C. for 60 minutes, and at 95° C. for 5 min respectively. Real-time PCR reactions were performed as follows: 10 μl of 2×TaqMan® Universal PCR Master Mix, no AmpErase® UNG (Applied Biosystems, USA), 9 μl 1:5 diluted cDNA, and 1 μl of TaqMan gene specific assay mix. Final volume of the reaction mix was 20 uL. Internal control gene beta-actin (ACTB) (Applied Biosystems, USA) was selected as control for normalization of TaqMan data. The qRT-PCR reaction comprised a non-template control of cDNA in order to rule out any non-specific reading. Taqman probes for Ctnnb1, Sox9, Actb, were obtained from Applied Biosystems. The qRT-PCR amplification was carried out using the Bio-Rad qRT-PCR Thermocycler.
In order to achieve the transfection reagent free delivery of therapeutically potential microRNAs, we tested miR-34a and compared with miR-34a-CP. Since microRNAs unlike siRNAs have multiple targets in the cell, and there is a necessity to reduce the off-target and undesirable effects if any, we have also designed siRNA model siR-34a-CP as stated above. We have used mouse preosteoblast cell line MC3T3-E1 obtained from calvarial bone for the in-vitro functional validation of cell-penetrating molecules. On the day before transfection experiment, 35000 MC3T3-E1 cells were cultured per each well of the 24-well culture plate in alpha-Minimum Essential Medium with 10% heat inactivated FBS, 1% L-Glutamine, 1% antibiotics (Pe/St). […] 5% CO2. Thereafter, RNA extraction, cDNA preparation, and quantitative real-time PCR was performed by using TaqMan procedure.

For `O=c1[nH]cc(F)c(=O)[nH]1` [5FU, 5-Fluorouracil], the cytotoxicity entry in data set [1] is “dose dependent cytotoxicity”.
Regarding “miR-34a-CP: Cell penetrating miR-34a, sense SEQ ID NO: 22 with dA5, antisense SEQ ID NO: 23 (sense CAAUCAGCAAGUAUACUGCCCUAAAAA; antisense UGGCAGUGUCUUAGCUGGUUGU; sense: sugars from the 5' end r22 d5, backbone not given here; antisense: RNA, backbone not given here)”, in the data set with SOX9, the SOX9 levels result is recorded as “upregulated”. For the same molecule, the Ctnnb1 expression result was “up regulation of Ctnnb1” in the data set on Ctnnb1 (β-Catenin) (50 nM, 24 h, alone without transfection reagent (FIG. 11)) and “up regulation of Ctnnb1” in the data set on Ctnnb1 (β-Catenin) (without transfection reagent MaTra (FIG. 12)).
